The assay addresses T1, eGFP-Linker-CBD (CBD domain of Penicillium crustosum endoglucanase EGL1) (Penicillium crustosum, UniProt U6A8H3).
T1 construct: N-terminal eGFP fusion in pET-28a, Ni-column, E. coli BL21(DE3)
T1 sequence (U6A8H3 301-459): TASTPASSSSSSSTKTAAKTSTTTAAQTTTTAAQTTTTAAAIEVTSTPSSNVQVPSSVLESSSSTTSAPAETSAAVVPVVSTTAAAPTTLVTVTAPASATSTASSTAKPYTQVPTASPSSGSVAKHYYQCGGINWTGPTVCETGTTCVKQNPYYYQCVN
Nature of the assay: isothermal titration calorimetry. The conditions noted are these: 20 mM Tris-HCl pH 7.5, 50 mM NaCl; 25 °C; multi-site binding model; unit not given. In general terms: In ITC the heat of successive injections is recorded.

The compound `OC[C@H]1O[C@@H](O[C@H]2[C@H](O)[C@@H](O)[C@H](O[C@H]3[C@H](O)[C@@H](O)[C@H](O[C@H]4[C@H](O)[C@@H](O)[C@H](O[C@H]5[C@H](O)[C@@H](O)C(O)O[C@@H]5CO)O[C@@H]4CO)O[C@@H]3CO)O[C@@H]2CO)[C@H](O)[C@@H](O)[C@@H]1O` (stereo partly shown) [cellopentose] showed a Ka of 2.3E4.

The values are drawn from publication PMC5419506, “Aromatic amino acids in the cellulose binding domain of Penicillium crustosum endoglucanase EGL1 differentially contribute to the cellulose affinity of the enzyme” (PLoS ONE, 2017).
